# Assay results from patent US20070128217A1 (priority 2003, published 2007).
# Key:
# [1] = test system: control sera (pooled serum of ten healthy LUMC hospital workers; commercial negative donor pooled serum from the Dutch bloodbank); assay type: binding, human; design: Binding of Control serum LUMC to linear peptides / Binding of Control serum Blood-bank to linear peptides / Binding of Control serum LUMC to looped peptides / Binding of Control Serum Blood-Bank to Looped peptides / Binding of Control serum LUMC to linear peptides of the protein M of SARS-CoV Urbani / Binding of Control serum Blood-bank to linear peptides of the protein M of SARS-CoV Urbani / Binding of Control serum LUMC to looped peptides of the protein M of SARS-CoV Urbani / Binding of Control Serum Blood-Bank to Looped peptides of the protein M of SARS-CoV Urbani: unit not given here
# [2] = test system: antibodies in sera from SARS patients (sera 1a, 1b, 2, 6, 37, 62, London, SARS-yellow, SARS-green); assay type: binding, human; design: Binding of serum 6 to linear peptides of protein X1 of SARS-CoV Urbani / Binding of serum 37 to linear peptides of protein X1 of SARS-CoV Urbani / Binding of serum 6 to looped/cyclic peptide (PEPSCAN-ELISA) / Binding of serum 37 to looped/cyclic peptide (PEPSCAN-ELISA) / Binding of serum 37 to looped/cyclic peptides of protein X1 of SARS-CoV Urbani / Binding of serum 6 to linear peptides of protein X2 / Binding of serum 37 to linear peptides of protein X2 / Binding of serum 37 to looped/cyclic peptides of protein X2 of SARS-CoV Urbani / Binding of serum 6 to linear peptides of protein M of SARS-CoV Urbani / Binding of serum 37 to linear peptides of protein M of SARS-CoV Urbani / Binding of serum 6 to looped/cyclic peptides of protein M of SARS-CoV Urbani / Binding of serum 37 to looped/cyclic peptides of protein M of SARS-CoV Urbani / Binding of serum 6 to linear peptides of protein X3 of SARS-CoV Urbani / Binding of serum 37 to linear peptides of protein X3 of SARS-CoV Urbani / Binding of serum 37 to looped/cyclic peptides of protein X3 of SARS-CoV Urbani / Binding of serum 6 to linear peptides of protein X4 of SARS-CoV Urbani / Binding of serum 37 to linear peptides of protein X4 of SARS-CoV Urbani / Binding of serum 37 to looped/cyclic peptides of protein X4 of SARS-CoV Urbani / Binding of serum 6 to linear peptides of protein X5 of SARS-CoV Urbani / Binding of serum 37 to linear peptides of protein X5 of SARS-CoV Urbani / Binding of serum 37 to looped/cyclic peptides of protein X5 of SARS-CoV Urbani / Binding of serum 6 to linear peptides of protein N of SARS-CoV Urbani / Binding of serum 37 to linear peptides of protein N of SARS-CoV Urbani / Binding of serum 6 to linear peptide (PEPSCAN-ELISA) / Binding of serum 1a to looped/cyclic peptides of protein N of SARS-CoV Urbani / Binding of serum 1b to looped/cyclic peptides of protein N of SARS-CoV Urbani / Binding of serum 2 to looped/cyclic peptides of protein N of SARS-CoV Urbani / Binding of serum 6 to looped/cyclic peptides of protein N of SARS-CoV Urbani / Binding of serum 37 to looped/cyclic peptides of protein N of SARS-CoV Urbani / Binding of serum 62 to looped/cyclic peptides of protein N of SARS-CoV Urbani / Binding of serum London to looped/cyclic peptides of protein N of SARS-CoV Urbani / Binding of serum SARS-green to looped/cyclic peptides of protein N of SARS-CoV Urbani: unit not given here
# [3] = test system: rabbit serum obtained by immunizing a rabbit with the SARS-CoV strain Frankfurt 1; assay type: binding; design: Binding of a rabbit serum to linear peptides / Binding of a rabbit serum to looped peptides / Rabbit serum linear peptides / Rabbit serum looped peptides / Binding of a rabbit serum to linear peptides of protein N of SARS-CoV Urbani (Rabbit serum linear peptides) / Binding of a rabbit serum to looped/cyclic peptides of protein N of SARS-CoV Urbani (Rabbit serum looped peptides): unit not given here
sequence,measurement,setting,value
TEVYYQLESTQITTD,Binding of Control Serum Blood-Bank to Looped peptides,[1],0.4
same,Binding of Control serum Blood-bank to linear peptides,[1],0.5
same,Binding of Control serum LUMC to linear peptides,[1],0.5
same,Binding of Control serum LUMC to looped peptides,[1],0.4
same,Binding of serum 1a to linear peptides of protein X1 of SARS-CoV Urbani,[2],0.8
same,Binding of serum 1a to looped/cyclic peptides of protein X1 of SARS-CoV Urbani,[2],0.5
same,Binding of serum 1b to linear peptides of protein X1 of SARS-CoV Urbani,[2],0.8
same,Binding of serum 1b to looped/cyclic peptides of protein X1 of SARS-CoV Urbani,[2],0.5
same,Binding of serum 2 to linear peptides of protein X1 of SARS-CoV Urbani,[2],0.5
same,Binding of serum 2 to looped/cyclic peptides of protein X1 of SARS-CoV Urbani,[2],0.2
same,Binding of serum 6 to linear peptides of protein X1 of SARS-CoV Urbani,[2],0.5
same,Binding of serum 6 to looped/cyclic peptides of protein X1 of SARS-CoV Urbani,[2],0.3
same,Binding of serum 37 to linear peptides of protein X1 of SARS-CoV Urbani,[2],0.9
same,Binding of serum 37 to looped/cyclic peptides of protein X1 of SARS-CoV Urbani,[2],0.5
same,Binding of serum 62 to linear peptides of protein X1 of SARS-CoV Urbani,[2],0.6
same,Binding of serum 62 to looped/cyclic peptides of protein X1 of SARS-CoV Urbani,[2],0.4
same,Binding of serum London to linear peptides of protein X1 of SARS-CoV Urbani,[2],0.4
same,Binding of serum London to looped/cyclic peptides of protein X1 of SARS-CoV Urbani,[2],0.2
same,Binding of serum SARS-green to linear peptides of protein X1 of SARS-CoV Urbani,[2],0.5
same,Binding of serum SARS-green to looped/cyclic peptides of protein X1 of SARS-CoV Urbani,[2],0.3
same,Binding of serum SARS-yellow to linear peptides of protein X1 of SARS-CoV Urbani,[2],0.6
same,Binding of serum SARS-yellow to looped/cyclic peptides of protein X1 of SARS-CoV Urbani,[2],0.3
same,Binding of a rabbit serum to linear peptides,[3],0.1
same,Binding of a rabbit serum to looped peptides,[3],0.4
LWPVTLACFVLAAVY,Binding of Control Serum Blood-Bank to Looped peptides of the protein M of SARS-CoV Urbani,[1],0.6
same,Binding of Control serum Blood-bank to linear peptides of the protein M of SARS-CoV Urbani,[1],0.6
same,Binding of Control serum LUMC to linear peptides of the protein M of SARS-CoV Urbani,[1],0.4
same,Binding of Control serum LUMC to looped peptides of the protein M of SARS-CoV Urbani,[1],0.7
same,Binding of serum 1a to linear peptides of protein M of SARS-CoV Urbani,[2],0.7
same,Binding of serum 1a to looped/cyclic peptides of protein M of SARS-CoV Urbani,[2],0.7
same,Binding of serum 1b to linear peptides of protein M of SARS-CoV Urbani,[2],0.6
same,Binding of serum 1b to looped/cyclic peptides of protein M of SARS-CoV Urbani,[2],0.5
same,Binding of serum 2 to linear peptides of protein M of SARS-CoV Urbani,[2],0.6
same,Binding of serum 2 to looped/cyclic peptides of protein M of SARS-CoV Urbani,[2],0.7
same,Binding of serum 6 to linear peptides of protein M of SARS-CoV Urbani,[2],0.3
same,Binding of serum 6 to looped/cyclic peptides of protein M of SARS-CoV Urbani,[2],0.6
same,Binding of serum 37 to linear peptides of protein M of SARS-CoV Urbani,[2],0.7
same,Binding of serum 37 to looped/cyclic peptides of protein M of SARS-CoV Urbani,[2],0.7
same,Binding of serum 62 to linear peptides of protein M of SARS-CoV Urbani,[2],0.8
same,Binding of serum 62 to looped/cyclic peptides of protein M of SARS-CoV Urbani,[2],0.6
same,Binding of serum London to linear peptides of protein M of SARS-CoV Urbani,[2],0.3
same,Binding of serum London to looped/cyclic peptides of protein M of SARS-CoV Urbani,[2],0.2
same,Binding of serum SARS-green to linear peptides of protein M of SARS-CoV Urbani,[2],0.2
same,Binding of serum SARS-green to looped/cyclic peptides of protein M of SARS-CoV Urbani,[2],0.2
same,Binding of serum SARS-yellow to linear peptides of protein M of SARS-CoV Urbani,[2],0.0
same,Binding of serum SARS-yellow to looped/cyclic peptides of protein M of SARS-CoV Urbani,[2],0.5
same,Rabbit serum linear peptides,[3],0.4
same,Rabbit serum looped peptides,[3],0.4
